Assay results published in US6806273B1, “Compounds” (AstraZeneca AB, priority 1998, dated 2004).

Compared with Nc1nc2nc(SCc3cccc(Oc4ccccc4)c3)[nH]c(=O)c2s1 [Example 5, 2-Amino-5-[[(3-phenoxyphenyl)methyl]thio]thiazolo[4,5-d]pyrimidin-7(4H)-one], O=c1[nH]c(SCc2cccc(Oc3ccccc3)c2)nc2ncsc12 [Example 4, 5-[[(3-Phenoxyphenyl)methyl]thio]thiazolo[4,5-d]pyrimidin-7(4H)-one] is lower in melting point: 266 to 269 °C for the first, 197 to 198 °C for the second.

Compared with CCCCCSc1nc2ncsc2c(=O)[nH]1 [Example 8, 5-(Pentylthio)thiazolo[4,5-d]pyrimidin-7(4H)-one], CCCCCSc1nc2nc(Br)sc2c(=O)[nH]1 [Example 11, 2-Bromo-5-(pentylthio)thiazolo[4,5-d]pyrimidin-7(4H)-one] is lower in melting point: 208 to 209 °C for the first, 189 to 191 °C for the second.

First: Nc1nc2nc(SCc3cccc(Oc4ccccc4)c3)nc(NC(CO)CO)c2s1 [Example 114, 2-[[2-Amino-5-[[(3-phenoxyphenyl)methyl]thio]thiazolo[4,5-d]pyrimidin-7-yl]amino]-1,3-propanediol]
Second: CC[C@@H](CO)Nc1nc(SCc2cccc(Oc3ccccc3)c2)nc2nc(N)sc12 [Example 112, (2S)-2-[[2-Amino-5-[[(3-phenoxyphenyl)methyl]thio]thiazolo[4,5-d]pyrimidin-7-yl]amino]-1-butanol]
The melting point of the first is higher: 220 to 222 °C for the first, 111 to 114 °C for the second.

Compared with CC(C)(CO)Nc1nc(SCc2cccc(Oc3ccccc3)c2)nc2nc(N)sc12 [Example 115, 2-[[2-Amino-5-[[(3-phenoxyphenyl)methyl]thio]thiazolo[4,5-d]pyrimidin-7-yl]amino]-2-methyl-1-propanol], CC[C@H](CO)Nc1nc(SCc2cccc(Oc3ccccc3)c2)nc2nc(N)sc12 [Example 111, (2R)-2-[[2-Amino-5-[[(3-phenoxyphenyl)methyl]thio]thiazolo[4,5-d]pyrimidin-7-yl]amino]-1-butanol] is lower in melting point: 126 to 130 °C for the first, 108 to 111 °C for the second.

First: CCCCCSc1nc(NC(CC)CO)c2sc(N)nc2n1 (racemic) [Example 6, (±)-2-[[2-Amino-5-(pentylthio)thiazolo[4,5-d]pyrimidin-7-yl]amino]-1-butanol]
Second: CCCCCSc1nc(NCCO)c2sc(N)nc2n1 [Example 7, 2-[[2-Amino-5-(pentylthio)thiazolo[4,5-d]pyrimidin-7-yl]amino]ethanol]
The melting point of the first is lower: 151 to 154 °C for the first, 192 to 195 °C for the second.
